Experimental data as given in the METLIN SMRT retention time set (Domingo-Almenara et al. 2019).

test: gradient 5% acetonitrile 3 min, to 50% in 2 min, to 85% in 15 min, held 3 min, 100 µL/min; settings: column: Zorbax Extend-C18 2.1 x 50 mm; eluents: water / acetonitrile, 0.1% formic acid
Procedure, shortened: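 A Zorbax Extend-C18 column (2.1 × 50 mm, 1.8 μm) run at 100 μL/min with water and acetonitrile, both containing 0.1% formic acid, separated mixtures of ~100 pure standards. The HPLC was coupled to a quadrupole time-of-flight mass spectrometer operated in positive and negative ionization mode, with dead and dwell volumes of 40 μL and 900 μL. Each retention time was taken from a computationally picked adduct peak that was then manually inspected.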

Going from Cc1cc(S(=O)(=O)N2[C@H]3CC[C@@H]2c2cnc(-c4ccccc4)nc2C3)ccc1F to Cc1ccc(-n2ncc3c(=O)n(Cc4nc(-c5ccccc5)no4)cnc32)cc1, the RP-LC retention time falls from 1090 s to 1080 s.

Going from COc1ccccc1NC(=O)N1CCC2(C1)C(=O)N(C)c1ccccc12 (stereo not drawn) to CC1(C(=O)NCc2ccc(F)cc2)CCCN(C(=O)Nc2ccccc2C(F)(F)F)C1 (stereo not drawn), the RP-LC retention time rises from 818 s to 949 s.

Going from Cn1ncc2c(N3CCSCC3)nc(C(=O)N3CCN(Cc4ccccc4)CC3)nc21 to CN(C)CCNC(=O)c1nc(N2CCSCC2)c2cnn(C)c2n1, the RP-LC retention time falls from 600 s to 560 s.

Compared with Cc1ccc(-c2noc(-c3nnc(NCCCN4CCOCC4)c4ccccc34)n2)cc1, Cc1ccc(-c2noc(-c3ccc(N4CCN(Cc5ccc6c(c5)OCO6)CC4)nc3)n2)cc1 is higher in RP-LC retention time: 735 s for the first, 874 s for the second.

Compared with CC(=O)Nc1ccc(-c2noc(C3CCN(C(=O)c4ccc(Br)cc4)CC3)n2)cc1, CC(=O)Nc1ccc(C(=O)N2CCC3(CC2)N=C(c2ccc(Cl)cc2)NO3)cc1 is lower in RP-LC retention time: 841 s for the first, 718 s for the second.

First: Cn1nccc1C(=O)N1CCc2cc(-c3csc(C4CC4)n3)ccc21
Second: CCn1nccc1C(=O)N1CCN(c2cc(-c3ccc(Cl)cc3)[nH]n2)CC1
The RP-LC retention time of the first is higher: 990 s for the first, 781 s for the second.

Going from COCCn1cc(CCNC(=O)Nc2ccccc2C)c2cccnc21 to CCn1cc(CCNC(=O)Nc2ccc3c(c2)OCCO3)c2cccnc21, the RP-LC retention time falls from 694 s to 661 s.

First: COC(=O)c1cc(S(=O)(=O)N2CCCC2C(=O)Nc2cccc(SC)c2)cn1C (stereo not drawn)
Second: CCC(=O)N1c2ccc(S(=O)(=O)N3CCCCC3)cc2CC1C(=O)NCc1ccc(N(C)C)cc1 (stereo not drawn)
The RP-LC retention time of the first is higher: 909 s for the first, 691 s for the second.

Going from Cc1ccc(CNC(=O)Cn2cnc3nc(N4CCC(C(=O)NC5CC5)CC4)sc3c2=O)cc1 to CC1CCC(NC(=O)C2CCN(S(=O)(=O)c3ccc4c(c3)sc(=O)n4C)CC2)CC1 (stereo not drawn), the RP-LC retention time rises from 708 s to 896 s.

First: CCC(N)Cc1c[nH]c2ccccc12 (stereo not drawn)
Second: CCn1ccnc1CC1COc2ccccc2O1 (stereo not drawn)
The RP-LC retention time of the first is lower: 646 s for the first, 682 s for the second.

Going from COc1ccc(CCNC(=O)CSC2=Nc3ccc(C)cc3OC2)cc1OC to CCCN1C(=O)COc2ccc(-c3noc(COc4ccc(OC)cc4)n3)cc21, the RP-LC retention time rises from 750 s to 1100 s.

First: COCCc1nnc(NC(=O)c2ccc3c(c2)CCCC3)o1
Second: COc1ccc(Cl)cc1NC(=O)c1cn2c(n1)CCCC2
The RP-LC retention time of the first is lower: 702 s for the first, 726 s for the second.

Compared with Cc1cc(C)n(Cc2nc(-c3ccc(NC(=O)C4CCCC4)cc3)oc2C)n1, O=C(CCC1CCCC1)Nc1ccc(-c2nnc3n2CCCC3)cc1 is lower in RP-LC retention time: 931 s for the first, 765 s for the second.

First: CCN1C(=O)c2cccc3c(NC(=O)Cc4cccs4)ccc1c23
Second: O=C(Cn1nc(C(=O)N2CCCC2)c2ccccc21)NCc1cccs1
The RP-LC retention time of the first is lower: 718 s for the first, 753 s for the second.

Going from CC(=O)Nc1ccc(NC(=O)C2CCCN(c3nc4ccccc4nc3C(F)(F)F)C2)cc1 (stereo not drawn) to O=C(Cn1nc(N2CCSCC2)c2ccccc2c1=O)Nc1cccc(C(F)(F)F)c1, the RP-LC retention time rises from 910 s to 1030 s.

Going from Cc1cccc(NC(=O)c2cnc3c(c2)c(=O)n(C)c(=O)n3-c2ccccc2)c1 to O=C(CCCn1c(=O)c2cccn2c2ccccc21)NCc1ccccn1, the RP-LC retention time falls from 926 s to 621 s.

Going from CCc1ccc(S(=O)(=O)N2c3ccccc3NC3=C(C(=O)CCC3)C2c2ccco2)cc1 (stereo not drawn) to CCS(=O)(=O)N1CC(=O)N(c2cccc(Cl)c2C)C(C)(C(=O)NCc2ccc(F)cc2)C1 (stereo not drawn), the RP-LC retention time falls from 923 s to 913 s.

Going from COc1ccccc1-c1noc(CCn2nc(-c3ccc(F)cc3)ccc2=O)n1 to O=c1c2scc(-c3ccc(F)cc3)c2ncn1Cc1cc(=O)n2ccccc2n1, the RP-LC retention time falls from 863 s to 810 s.

Going from COCC(=O)N1CCC(N2C[C@H](O)C[C@H]2C(=O)NC2CCCCC2)CC1 to O=C(C1CC(=O)N(c2ccc3c(c2)CCN3C(=O)C2CC2)C1)N1CCCCCC1 (stereo not drawn), the RP-LC retention time rises from 573 s to 750 s.

Going from CCc1noc(-c2ccnc(-n3ncc(C(=O)NCC(C)C)c3C)c2)n1 to CCc1nc2cc(-c3noc(-c4ccc(C)c(NC(C)=O)c4)n3)ccc2o1, the RP-LC retention time falls from 931 s to 895 s.

Compared with Cc1sc(C)c(S(=O)(=O)NCCc2ccccc2)c1-c1cc(C(F)(F)F)on1, CCn1cc(S(=O)(=O)N2CC(c3nc(CCOCc4ccccc4)no3)C2)cn1 is lower in RP-LC retention time: 1180 s for the first, 856 s for the second.

First: COCCNC(=O)C1Cc2cc(C(F)(F)F)ccc2N2CCN(C(=O)c3ccco3)CC12 (stereo not drawn)
Second: CCC(=O)N1CCc2cc(C(=O)N3CCN(C(=O)c4ccco4)CC3)ccc21
The RP-LC retention time of the first is higher: 767 s for the first, 662 s for the second.

Going from Cc1ccc(NC(=O)N2CC(c3nc(C(C)C)nn3C)C2)cc1F to COCCNc1c(-c2cccc(F)c2)nc2sc(C(=O)N3CCCC3)c(C)n12, the RP-LC retention time rises from 706 s to 783 s.

Going from Cc1nc(-c2cn(Cc3cccc(F)c3)nn2)no1 to Cn1nccc1-c1cccc(-c2noc(-c3ccc(F)c(Cl)c3)n2)c1, the RP-LC retention time rises from 748 s to 1280 s.

Going from COc1cc(N2C=C(C(=O)N3CCCC3)S(=O)(=O)c3ccccc32)cc(OC)c1OC to O=C(c1cc2c(=O)n(Cc3ccccc3)ccc2s1)N1CCCCCC1, the RP-LC retention time rises from 753 s to 876 s.

Compared with Cc1cccc(Oc2nccn3c(=O)n(CC(=O)NCCC4=CCCCC4)nc23)c1C, Cc1cc(C)cc(Oc2nccn3c(=O)n(CC(=O)Nc4cc(F)ccc4F)nc23)c1 is lower in RP-LC retention time: 1000 s for the first, 950 s for the second.

First: Cc1ccc2nc(C(=O)NCc3ccc(C)o3)cn2c1
Second: CCc1cc(=O)n(CC(=O)Nc2ccc(N(C)C)cc2)c(N2CCOCC2)n1
The RP-LC retention time of the first is higher: 660 s for the first, 587 s for the second.

Compared with O=C(CSc1ccc(N2CCOCC2)nn1)Nc1ccc(F)cc1F, CC1CCN(c2nn(CC(=O)Nc3ccccc3F)c(=O)c3ccccc23)CC1 is higher in RP-LC retention time: 669 s for the first, 1090 s for the second.

Compared with Cc1cc(N2CCN(C)CC2)nc(N2CCN(S(=O)(=O)c3cc(C)c(C)cc3C)CC2)n1, O=C1NCCCn2cc(S(=O)(=O)N3CCN(c4ccc(Cl)cc4)CC3)cc21 is higher in RP-LC retention time: 598 s for the first, 804 s for the second.

Going from COC(=O)[C@H](Cc1cccc(C(=N)N)c1)[C@@H](C)NC(=O)c1ccc(-c2cc[n+]([O-])cc2)cc1 to CC(C)NC(=O)c1ccc(OCC2CCN(C(=O)c3c(F)cccc3F)CC2)cc1, the RP-LC retention time rises from 610 s to 862 s.

First: Cc1cc(N2CCN(c3ccccn3)CC2)n2nc(C(F)(F)F)c(-c3ccc(F)cc3)c2n1
Second: CCOC(=O)c1nc(N2CCN(c3cc(Cl)ccc3C)CC2)c2ccccc2n1
The RP-LC retention time of the first is lower: 870 s for the first, 1140 s for the second.

Compared with COC1OC2COC(c3ccccc3)OC2C(=O)C1NC(=O)c1ccccc1 (stereo not drawn), O=C(Cn1cccc1-c1nc(-c2ccccc2)no1)N1CCc2ccccc21 is higher in RP-LC retention time: 1050 s for the first, 1110 s for the second.

Compared with O=C(c1ccc(-c2cccs2)nc1)N1CCOCC1, CC1=C(C(=O)N2CCOCC2)C(c2ccc(Br)cc2)C2=C(CCCC2=O)N1 (stereo not drawn) is lower in RP-LC retention time: 678 s for the first, 670 s for the second.

First: CC(C)N1CCN(Cc2ccc(C(=O)NCc3ccccc3C(F)(F)F)cc2)C(=O)C1=O
Second: CC1(C)CC(=O)c2cn(-c3ccc(Cl)cc3)c(=O)c(C(=O)N3CCN(c4ccccn4)CC3)c2C1
The RP-LC retention time of the first is higher: 770 s for the first, 650 s for the second.

First: CCn1c(=O)n(CC)c2cc(N3CCCC3)c(NC(=O)NCc3cccc(F)c3)cc21
Second: CCC(C)NC(=O)C1CCN(Cc2c(C)n(CC)c3ccccc23)CC1 (stereo not drawn)
The RP-LC retention time of the first is lower: 654 s for the first, 667 s for the second.

Compared with COCCCNC(=O)N1CCCC1c1ccccc1Cl (stereo not drawn), COCCCNC(=O)C1CCN(c2ncccc2S(=O)(=O)N2CCOCC2)CC1 is lower in RP-LC retention time: 797 s for the first, 613 s for the second.

Compared with Cc1sc2ccn(C)c(=O)c2c1C(=O)NCC1CCCCC1, Cc1ccc(F)c2c(=O)c3c([nH]c12)CCN(CC(=O)NC1CCCC1)C3 is lower in RP-LC retention time: 816 s for the first, 669 s for the second.

First: CCOc1ccc(CNC(=O)C2CCN(S(=O)(=O)N(CC(C)C)CC(C)C)CC2)cc1OC
Second: COCC(=O)N1CCCN(c2cc(=O)n(C(C)C)c(=O)n2C(C)C)CC1
The RP-LC retention time of the first is higher: 1040 s for the first, 678 s for the second.

Compared with Cc1ccc(-c2cc3c(=O)n(Cc4noc(CN5CCCC5)n4)ccn3n2)cc1C, Cc1nn(-c2cc(N3CCCCC3)ncn2)c(C)c1CCC(=O)NC(C)CCc1ccco1 (stereo not drawn) is higher in RP-LC retention time: 697 s for the first, 941 s for the second.

First: O=C(Nc1c(-c2ccc(F)cc2)nc2ccccn12)c1ccc2c(c1)OCO2
Second: O=C(Nc1ccc2c(c1)OCCO2)c1cnc(-c2ccc(F)cc2)nc1-c1ccncc1
The RP-LC retention time of the first is lower: 651 s for the first, 831 s for the second.

Going from COc1ccc(Cl)cc1NC(=O)Cn1cccc1-c1nnc(C2CC2)o1 to O=C(Cn1cccc1-c1nnc(C2CC2)o1)NCc1ccc(Cl)cc1, the RP-LC retention time falls from 972 s to 825 s.

Going from CCn1nccc1C(=O)NCCn1c(C)cnc1C1CCC1 to O=C(CSc1nnc(-c2ccccc2F)o1)NC1CCCCC1, the RP-LC retention time rises from 574 s to 782 s.

First: O=C(Cn1c(=O)c(CCC(=O)NC2CCCC2)nc2ccccc21)Nc1ccc(F)c(F)c1
Second: O=C(NCCn1nnc2cc(C(=O)N3CCCC3)ccc21)Nc1ccccc1
The RP-LC retention time of the first is higher: 825 s for the first, 616 s for the second.

Going from CC1=C(c2ccccc2)S(=O)(=O)N=C1N1CCC(NC(=O)NCC(C)C)CC1 to Cc1cccc(-c2nc(C3CCN(C(=O)C(NC(=O)c4ccco4)C(C)C)CC3)no2)c1 (stereo not drawn), the RP-LC retention time rises from 790 s to 1010 s.
